Laboratory results from patent US7351736B2, “Therapeutic compositions (II)” (priority 1998, dated 2008).
Where two headings read alike, the source gives them in different places.

How the values were obtained:
[1] = liquid diet, glucose (47% of caloric content) substituted; cited from earlier work
[2] = tested on: primary hippocampal cultures; experiment: Hippocampal microisland cultures with or without amyloid β1-42; format: cell-based, Wistar embryos; conditions: for neuronal cell number per microisland (mean): increase from a mean of 30
Experimental: The serum free medium used from 0 to day 4 contained Neurobasal medium with B27 supplement diluted 50 fold (Life Technology, Gaithersburg, Md.) to which was added: 0.5 mM L-glutamine, 25 μM Na L-glutamate, 100 U/ml penicillin and 100 μg/ml streptomycin. After day 4, DMEM/F12 medium containing 5 μM insulin, 30 nM 1-thyroxine, […] progesterone, 30 nM Na selenite 100 U/ml penicillin and 100 μg/ml streptomycin were used.
The primary hippocampal cultures were removed from Wistar embryos on day 18 and dispersed by gentle agitation in a pipette. The suspension was centrifuged at 1,500×g for 10 min and the supernatant discarded. The pellet was resuspended in new media to a final cell count of […]. Ten μl of this suspension was pipetted into the center of poly D-lysine coated culture wells and the plates incubated at 38° C. for 4 hrs and then 400 μl of fresh Neurobasal media was added. After 2 days of incubation, half of the media was exchanged for fresh media and the incubation continued for 2 more days. After day 4, the medium was changed with DMEM/F12 medium containing 5 μM insulin, 30 nM 1-thyroxine, 20 nM progesterone, 30 nM Na selenite 100 U/ml penicillin and 100 μg/ml streptomycin. […] These media were exchanged 2 days later (day 8) and the cells were fixed on day 10 and stained with anti MAP2 (Boehringer Manheim, Indianapolis Ind.) to visualize neurons and vimentin and GFAP (Boehringer) to visualize glial cells.

[3] = design: species or system rats; conditions: rat, in vivo, 30 min
Experimental: Control rats (n=2) were killed at 60 and 180 minutes after ingestion of yoghurt while triolide fed rats were killed at 80, 140, 150 and 155 minutes. Blood samples were taken for assay of (R)-3-hydroxybutyrate. Brains were funnel frozen and later extracted in perchloric acid and extracts neutralised and assayed. Blood levels of (R)-3-hydroxybutyrate were measured using a […] assay of Anal. Biochem (1983) 131, p478-482. 1.0 ml of a solution made up from 2-amino-2-methyl-1-propanol (100 mM pH 9.9, 0.094 g/10 ml), NAD^+ (30 mM, 0.199 g/10 ml) and EDTA (4 mM, 0.015 g/10 ml) was added to each of a number of cuvettes and 4 μl sample or (R)-3-hydroxybutyrate control.
The ability of orally administered (R)-3-hydroxybutyrate and the linear oligomers of Comparative examples 1 and 2 to raise blood ketone body levels was investigated as follows. Rats were fasted overnight and then gavaged with 100 μl/100 g bodyweight of 4M (R)-3-hydroxybutyrate brought to pH 7.4 using methyl glucamine. Plasma levels of (R)-3-hydroxybutyrate were measured at 0.62 mM after 30 minutes as compared to 3 mM when 9M (R)-3-hydroxybutyrate is used.
This procedure was repeated with 2M solutions of the mixtures (R)-3-hydroxybutyrate oligomers and their acetoacetyl esters described in Comparative Examples 1 and 2.

[4] = unesterified state, room temperature; cited from earlier work
[5] = human, cited from earlier work
[6] = Rats fed triolide in 'Hob-Nob' biscuit, ill effects; format: in vivo; conditions: two rats fed approximately 1.5 g triolide each in 'Hob-Nob' biscuit; after two weeks
[7] = Oral administration of triolide in yoghurt to rats, plasma (R)-3-hydroxybutyrate; format: in vivo, Wistar rats; conditions: about 0.4 g triolide in yoghurt
Experimental: The ability of orally administered triolide to raise blood ketone levels was investigated as follows. The day before the experiment commenced, 12 Wistar rats weighing 316+10 g were placed in separate cages. They had no access to food for 15 hours prior to presentation with triolide containing compositions, but water was provided ad libitum.
On the morning of the experiment 0.64 g of triolide was mixed with 5 g Co-op brand Black Cherry yoghurt in separate feeding bowls for 9 of the rats. The remaining 3 rats were given 5 g of the yoghurt without the triolide as controls. The yoghurt containing bowls were placed in the cages and the rats timed while they ate. Two of the three control rats ate all the yoghurt and four of the […] ate approximately half the provided amount. The remaining six rats slept.
Control rats (n=2) were killed at 60 and 180 minutes after ingestion of yoghurt while triolide fed rats were killed at 80, 140, 150 and 155 minutes. Blood samples were taken for assay of (R)-3-hydroxybutyrate. Brains were funnel frozen and later extracted in perchloric acid and extracts neutralised and assayed. Blood levels of (R)-3-hydroxybutyrate were measured using a […] assay of Anal. Biochem (1983) 131, p478-482. […]

[8] = presence of (R)-3-hydroxybutyrate, whether β1-42 was present or not

CC(O)CCO (racemic) [racemic 1,3 butandiol]
blood (R)-3-hydroxybutyrate concentration [1]: 0.98 mM
blood acetoacetate concentration [1]: 0.33 mM
rise of blood ketone concentration [1]: about 10 fold

C[C@@H](O)CC(=O)O [(R)-3-hydroxybutyrate, (R)-3-hydroxybutyric acid]
neuronal cell number per microisland (mean) ([2]; 8 mM (R)-3-hydroxybutyrate added to cultures containing amyloid β1-42): 70 cells per microisland
neuronal cell number per microisland (mean) ([2]; 8 mM (R)-3-hydroxybutyrate, no amyloid β1-42): 70 cells per microisland
length of axons [2, 8]: increased
number of dendritic outgrowths [2, 8]: increased
plasma level of (R)-3-hydroxybutyrate [3]: 3000 µM
plasma level of (R)-3-hydroxybutyrate ([3]; pH 7.4): 620 µM

CC(=O)CC(=O)O [acetoacetate]
half time of spontaneous decarboxylation to acetone [4]: about 30 days

C[C@@H](O)CC(=O)[O-].[Na+] [sodium salts of (R)-3-hydroxybutyrate]
toxicity on intravenous infusion ([5]; in vivo, iv): non-toxic
decreasing leucine oxidation ([5]; intravenous infusion): ineffective
glucose free fatty acids and glycerol concentration ([5]; intravenous infusion): capable of decreasing

C[C@@H]1CC(=O)O[C@H](C)CC(=O)O[C@H](C)CC(=O)O1 [triolide, (R,R,R)-4,8,12-trimethyl-1,5,9-trioxadodeca-2,6,10-trione]
melting point: 107 to 108 °C
ill effects [6]: no ill effects
ill effects from ingestion of triolide [7]: no ill effects
